The subject of series [1] is HepG2 cells. Set-up: method as in PMID 28087808. To be noted: cited from earlier work.
The conditions of series [2]: po; cited from earlier work.
Series [3] deals with T1, LXRα (Homo sapiens, UniProt Q13133).
T1 sequence (Q13133 209-447 limits assumed): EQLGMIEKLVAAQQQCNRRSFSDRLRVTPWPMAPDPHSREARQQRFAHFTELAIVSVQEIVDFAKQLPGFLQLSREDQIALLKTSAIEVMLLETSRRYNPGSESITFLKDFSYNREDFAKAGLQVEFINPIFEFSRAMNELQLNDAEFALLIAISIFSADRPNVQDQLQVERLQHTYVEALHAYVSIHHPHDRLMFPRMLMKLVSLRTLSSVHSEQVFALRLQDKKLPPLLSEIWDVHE
To be noted: for SRC-1 recruitment to LXRα, efficacy relative to T0: ligand alone, normalized to T0 (100%).

The subject of series [4] is HepG2 cells.
For series [5], the target named is T1, LXRα. Kind of series: Corepressor (NCOR2, SMRT2) binding CRT, LXRα. The settings on record: absence of coactivator.
Series [6] addresses T2, LXRβ (Homo sapiens, UniProt P55055).
T2 sequence (P55055 222-460 limits assumed): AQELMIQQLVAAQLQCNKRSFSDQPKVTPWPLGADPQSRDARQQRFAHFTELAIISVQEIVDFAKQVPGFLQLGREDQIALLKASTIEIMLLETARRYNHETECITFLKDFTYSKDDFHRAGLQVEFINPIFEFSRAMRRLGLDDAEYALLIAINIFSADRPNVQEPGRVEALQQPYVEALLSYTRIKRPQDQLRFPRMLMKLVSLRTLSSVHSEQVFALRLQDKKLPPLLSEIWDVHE
To be noted: for LXR isoform selectivity, SRC-1 recruitment: LXRβ versus LXRα.

Series [7] concerns the target T2, LXRβ. Kind of series: Corepressor (NCOR2, SMRT2) binding CRT, LXRβ.
Series [8] relates to HepG2 cells. Kind of series: Cytotoxicity seen in HepG2 cell treatment. To be noted: higher concentrations.
For series [9], the target named is T1, LXRα. Also noted: NR-LBD with short coregulator peptides as used in the present work; purchased Thermo Fisher Scientific PV4657; method as in PMID 16354658. To be noted: CRT; cited from earlier work.
Another series has as its system hamsters. Also noted: method as in PMID 16024916. The settings on record: cited from earlier work.
The subject of another series is cynomolgus monkeys. Set-up: method as in PMID 16024916. The settings on record: cited from earlier work.
For series [10], the target named is T2, LXRβ. Kind of series: Multiplex precision CRT (pCRT), SRC1 and NCoR2, LXRβ. It is filed as biochemical. Also noted: NR-LBD with short coregulator peptides as used in the present work; purchased Thermo Fisher Scientific PV4660. The settings on record: isoform not given.
The subject of another series is C57Bl/6 mice. Also noted: method as in PMID 15145986. To be noted: cited from earlier work.
The target in another series is PXR (Homo sapiens, UniProt O75469). Kind of series: Lanthascreen CRT, SRC1-4 recruitment to PXR. The format is biochemical. To be noted: SRC1-4 coactivator.
Chain of PXR (O75469 146-433 limits assumed): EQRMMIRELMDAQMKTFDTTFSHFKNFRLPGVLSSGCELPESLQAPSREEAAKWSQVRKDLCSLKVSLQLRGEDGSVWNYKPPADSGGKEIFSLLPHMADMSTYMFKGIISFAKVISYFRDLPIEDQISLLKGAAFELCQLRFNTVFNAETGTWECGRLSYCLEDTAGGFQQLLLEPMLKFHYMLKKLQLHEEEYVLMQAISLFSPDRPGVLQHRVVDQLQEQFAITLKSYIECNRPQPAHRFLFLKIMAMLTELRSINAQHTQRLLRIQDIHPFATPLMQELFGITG
Series [11] has as its target T1, LXRα. Kind of series: Multiplex precision CRT (pCRT), SRC1 and NCoR2, LXRα. It is filed as biochemical. Set-up: NR-LBD with short coregulator peptides as used in the present work; purchased Thermo Fisher Scientific PV4657. To be noted: isoform not given.
In a further series the test system is NASH mouse model. The settings on record: cited from earlier work.
The test system of a further series is LXR. Kind of series: CRT signature categorization, heat map of response at 1 μM. The settings on record: signatures of Table 1. It is filed as biochemical. From the text:
With the knowledge that corepressors bind to the apo-receptor; whereas coactivator binding requires a ligand-induced conformational change, we can categorize all ligands using their CRT profiles: ligands induce 3 conformations with CoR (destabilizing D, stabilizing S, neutral N) and only 2 conformations with CoA (stabilizing S, neutral N) (Table 1).
To determine which LXR ligands fit with these theoretical CRT signatures, concentration-response curves were interpolated to measure normalized response at 1 μM ligand concentration and plotted as a heat map (Figs 9A, S8).
The CRT signatures of the three agonist and three antagonist classifications were modelled in the same heat map using signatures defined in Table 1 and the measured responses to the real LXR ligands in our study.

Series [12] concerns SREBF1, FAS, and SCD1 in HepG2 cells. Kind of series: RT-PCR of lipogenic genes in HepG2 cells. To be noted: HepG2, 24 hours. It is filed as cell-based, human. The method, then: Owing to the anomalous response in the reporter assay, we measured lipogenic genes, SREBF1, FAS, and SCD1 by RT-PCR in HepG2 cells in response to treatment with the biphenyl sulfones (Figs 5G–I).
HepG2 cells were seeded in 12-well plates and treated with compounds for 24 hours. Following treatment, cells were washed once with PBS and then lysed in 350 μL of RLT buffer (Qiagen). Lysates were immediately frozen at −80 °C until RNA extraction. Total RNA was extracted using RNeasy Plus Mini columns (Qiagen) according to the manufacturer’s instructions. RNA concentration and purity were assessed using the A260/A280 ratio measured on a Synergy Neo2 plate reader (BioTek). For cDNA synthesis, 2 μg of total RNA was reverse transcribed using SuperScript III reverse transcriptase (Invitrogen), oligo(dT)12–18 primers, and dNTP mix, following the manufacturer’s protocol. Quantitative PCR was performed using TaqMan Gene Expression Master Mix (Invitrogen) with 2 μL of cDNA and gene-specific TaqMan probes in a 20 μL reaction volume per well. The following TaqMan assays were used: ABCA1: Hs01059101_m1, SREBF1: Hs01088691_m1, SCD: Hs01682761_m1, FASN: Hs01005622_m1, and HPRT1 (endogenous control): Hs02800695_m1. qPCR was performed on a StepOne Real-Time PCR System (Applied Biosystems), and gene expression was quantified using the ΔΔCt method.

The test system of series [13] is SRE promoter luciferase (SRE-luc) in HepG2 cells. Kind of series: SRE-luc reporter in HepG2 cells. It is filed as cell-based, human. The settings on record: HepG2, normalized to T0. From the text: Our phenotypic high throughput screen (HTS) approach to identify nonlipogenic ABCA1 Inducers (NLAI) originally used counterscreening with a SREBP1c-luciferase reporter (linked to the SREBF1 gene promoter) in human hepatocarcinoma HepG2 cells.[81] Unwanted lipogenesis is mediated by LXR agonists via direct transcriptional activation and indirectly by the effects of SREBP1c.[57] [109] SREBP1c enhances transcription of genes required for synthesis of fatty acids and TG and as the dominant isoform in liver is associated most closely with lipogenesis and TG elevation.[109] […] Binding of SREBP1c to the sterol response element (SRE) induces transcription of lipogenic genes associated with elevated TG. To better model the lipogenic axis in hepatocytes, we use HepG2 cells stably transfected with a luciferase reporter downstream of a SRE promoter (SRE-luc), activation of which requires SREBP1c maturation.
HepG2 cells were cotransfected with SRE (LDLR)-NlucP SuperPiggyBac Transposon and a separate Transposase plasmid (System Biosciences). Cells were expanded for multiple passages followed by selection with puromycin (1ug/ml). Stable cells constitutively express GFP allowed for FACS enrichment and/or cell cloning. Initially, stable pools were compared to low expressing and high expressing enriched pools. The optimal pool was selected based on assay performance (Z’) and was grown and maintained as above, with the addition of 1.0 μg/mL of puromycin biweekly.

The test system of series [14] is ABCA1-promoter luciferase in CCF-STTG1 cells. Kind of series: ABCA1-luc reporter in CCF-STTG1 astrocytoma cells. It is filed as cell-based, human. The settings on record: 24 hr incubation, normalized to T0 (100%). From the text: Astrocytoma CCF-STTG1 cells, stably transfected with an ABCA1-promoter linked to a luciferase response element provide a model for ABCA1 induction in astrocytes.[81] […] Apparent inverse agonist activity in cell-based assays can result from true inverse agonist recruitment of corepressors or from antagonist activity towards endogenous sterol LXR agonists. Although we use serum stripped media, antagonism of endogenous LXR agonists cannot be ruled out.
Low passage CCF-STTG1 cells (20,000 cells/well) were seeded in 96-well plates in media containing charcoal-stripped FBS and incubated at 37 °C and 5% CO2 for 24 hours prior to a 24-hour treatment. All compounds were dissolved in DMSO, and final DMSO concentrations never exceeded 1%. After a 24-hour incubation period, add a volume of ONE-GLO™EX Reagent that is equal to the volume of culture medium in each well and incubate for 3 to 5 minutes on the shaker. The luminescent activity of compounds ([…], 10-fold dilution) was examined using the ONE-GLO™EX assay (Promega). The data was normalized to DMSO. The assays were performed in duplicates for each concentration, and the EC50 values were determined from non-linear regression analysis of the dose-response curve generated in GraphPad Prism 9.

Entries after “also recorded” stand apart in the source; their conditions may differ. Read-outs that look alike come from different tables or passages of the source. A value given as a limit tells only on which side of the number the result lay.

`CN(CC(=O)Nc1ccc(F)c(F)c1F)C(=O)c1ccc2c(c1)OCCO2` [IMB-808]: the “Lipogenicity in HepG2 cells” value with HepG2 cells [1] is reported as “nonlipogenic in HepG2 cells”.

With `CC(CCC(=O)N(C)C)C1CCC2C3CC=C4CC(O)CCC4(C)C3CCC12C` (stereo not drawn) [DMHCA, N,N-dimethyl-3β-hydroxy-cholenamide], the “Metabolic lability and oral bioavailability” value in series [2] is given as “metabolically labile with poor oral bioavailability”. Further, the “SRC-1 recruitment to LXRα, efficacy relative to T0” value on LXRα [3] was “partial agonist activity at LXRα”. For the same compound, the Cytotoxicity entry in the series on HepG2 cells [4] is listed as “cytotoxic at higher concentrations”. Moreover, on LXRα [5], the “NCOR2 binding to LXRα, ligand effect” value is reported as “little or no effect”. The “LXR isoform selectivity, SRC-1 recruitment” value on LXRβ [6] is reported as “nonselective”. In addition, the “NCOR2 binding to LXRβ, ligand effect” value at LXRβ [7] (absence of coactivator) is listed as “little or no effect; also recorded: does not displace NCOR2 from LXRβ in the absence of SRC1”.

For the compound `CC(C)C(O)CC[C@@H](C)[C@H]1CC[C@H]2[C@@H]3CC=C4C[C@@H](O)CC[C@]4(C)[C@H]3CC[C@]12C` (some centres unmarked) [24HC, 24-hydroxycholesterol], the “SRC-1 recruitment to LXRα, efficacy relative to T0” value on LXRα [3] is given as “partial agonist”. In addition, in the series on HepG2 cells [8], the Cytotoxicity result is given as “cytotoxic at higher concentrations”. On LXRβ [6], the “LXR isoform selectivity, SRC-1 recruitment” value is on record as “nonselective”. Further, the “SRC-1 recruitment to LXRβ, efficacy/potency relative to T0” value on LXRβ [6] (ligand alone, normalized to T0 (100%)) was “partial agonist”.

Turning to `O=C(O)Cc1cccc(OCCCN(Cc2cccc(C(F)(F)F)c2Cl)CC(c2ccccc2)c2ccccc2)c1` [GW3965], at LXRα [9], the “Concentration for weak recruitment of NCOR1 to LXRα” value is more than 1 µM. In addition, in the series with hamsters, the “Plasma TG, LDL-C and VLDL-C” value is listed as “dose-dependent increase”. In addition, the “TG and LDL” value in the series with cynomolgus monkeys is reported as “no effect on TG”. Moreover, the “Left-shift in the NCOR2 displacement curve, pCRT versus CRT” value on LXRβ [10] and at LXRα [11] was 100 fold throughout. In the series with C57Bl/6 mice (3 days treatment, GW3965 even at 100mg/kg/day), the “Liver weight and TGs” value is given as “no effect on these liver markers”. The “SREBP1c and FAS expression in the liver” value with C57Bl/6 mice (3 days treatment) was “minimal increases in SREBP1c and FAS expression in the liver”. In the series on C57Bl/6 mice (peripheral macrophages), the “ABCA1 expression increase, peripheral macrophages” value is reported as 7 fold. Besides, the “ABCA1 expression increase, small intestine” value in the series on C57Bl/6 mice (small intestine) is 8 fold. At PXR, the “PXR agonism/binding in CRT” value was “no binding to PXR”.

As to `Cc1cc(C)c(S(=O)(=O)N(Cc2ccc(-c3cccc(S(C)(=O)=O)c3)cc2)Cc2ccc(C(F)(F)F)o2)c(C)c1` [GSK2033], the “Effect on 24HC agonism at LXRα” value at LXRα [3] (in the presence of 24HC (3 μM)) was “without effect on LXRα”. Also, the “SRC-1 recruitment to LXRα, efficacy relative to T0” value on LXRα [3] was “neither ligand stabilized the LXR:SRC1 complex alone”. Also, in the series with NASH mouse model, the “Expression of lipogenic genes, including FAS and SREBP1c” value is recorded as “increased rather than suppressed”. Further, the CRT signature category entry in the series on LXR was “HA (hard antagonist (HA))”. Further, in series [12], the “Lipogenic gene transcription (SREBF1, FAS, SCD1) by RT-PCR” value is “reducing lipogenic gene transcription below baseline”. Further, the “Corepressor (NCOR2 and SMRT2) binding to LXRα, ligand effect” value at LXRα [5] is reported as “does not stabilize a conformation that disrupts corepressor binding to LXRα”. At LXRβ [6], the “Effect on 24HC agonism at LXRβ” value is on record as “antagonized the agonism of 24HC at LXRβ” and the “SRC-1 recruitment to LXRβ, efficacy/potency relative to T0” value is “neither ligand stabilized the LXR:SRC1 complex alone”. Also, the “SRE-luc response” value in series [13] is on record as “neutral or antagonist response; also recorded: mixed antagonist/inverse agonist phenotype”. The “ABCA1-luc response” value in series [14] was “inverse agonist activity in cells; also recorded: mixed antagonist/inverse agonist phenotype”. For the same compound, the “SMRT2 binding to LXRβ, ligand effect” value at LXRβ [7] is listed as “selectively displace SMRT2 from LXRβ”.

The record behind these values is doi:10.1101/2025.09.12.675753, “In search of nonlipogenic ABCA1 inducers (NLAI): precision coregulator TR-FRET identifies diverse signatures for LXR ligands” (bioRxiv, 2025).
